Results taken from patent US6670382B2, “Hydroxyformamidine derivatives and medicines containing the same” (Taisho Pharmaceutical Co., Ltd., priority 2000, dated 2003).
pIC50: −log10 of the molar value.

Assays:
[1] = system: 20-HETE synthase derived from rat kidney microsome; test: Inhibitory effect of 20-HETE synthase derived from rat kidney microsome; assay type: biochemical; details: SHR rat kidney microsome; for pIC50: concentration at which 20-HETE production was inhibited to 50%; for Inhibition (1 µM): inhibition rate of 20-HETE production, subject compound 1 μM, 3H-arachidonic acid, NADPH, 1.5 hours at 37° C., pH 7.4
Method: [Inhibitory Effect of 20-HETE Synthase Derived from Rat Kidney Microsome]
Regarding the compounds listed in the Table described above, their inhibitory activities on production of 20-HETE were examined.
This examination was carried out based on the method described in J. Pharmacol. Exp. Ther., Vol. 268, p. 474 (1994).
The subject compound in an amount of 1 μM was added to a 50 mM of 3-morpholinopropanesulfonic acid buffer (MOPS) (pH 7.4), containing 5 mM of magnesium chloride, and 1 mM of ethylenediaminetetraacetic acid (EDTA) disodium salt.
Subsequently, the rat kidney microsome fraction prepared from the kidney of a spontaneously hypertensive rat (male, 6 weeks of age) as an enzyme, [5,6,8,9,11,12,14,15] tritium-arachidonic acid (supplied by Amasham) as a substrate, and NADPH (supplied by Sigma) as a coenzyme were added, and were reacted for 1.5 hours at 37° C.
After the reaction was quenched by adding formic acid (supplied by Wako Pure Chemical Industries Ltd.) to the reaction solution, acetonitrile (final concentration of 50%) was added thereto, and the mixture was allowed to stand for 1.5 hours at room temperature. The amount of 20-HETE production was measured by using a high performance liquid chromatography having a detector for radioactive substances (supplied by Gilson), equipped with an ODS column (Biocyl C18, supplied by Bio-rad).
Setting an amount of 20-HETE production to 100% when no subject compound was added, the inhibition rate (%) was calculated from the amount of 20-HETE production when a subject compound was added.
In addition, setting an amount of 20-HETE production to 100% when no subject compound was added, the concentration of the subject compound at which the production of the 20-HETE was inhibited to 50% when the subject compound is added (IC50 value) was also calculated.

| SMILES | pIC50 [1] | melting point [°C] | Inhibition (1 µM) [1] [%] |
| --- | --- | --- | --- |
| CN(C)CC(C)(C)COc1ccc(N/C=N/O)cn1 [Comp. 123, N-[2-(3-dimethylamino-2,2-dimethylpropyl-1-oxy)pyridin-5-yl]-N′-hydroxyformamidine] | 9.22 | 74 to 76.5 | 97.5 |
| CSCCCOc1ccc(N/C=N/O)cn1 [Comp. 93] | 8.18 | 109 to 111 | 97.4 |
| CC(C)Oc1ccc(N/C=N/O)cn1 [Comp. 8] | 6.22 | 116.5 to 117 | 71.0 |
| C#CCCCOc1ccc(N/C=N/O)cn1 [Comp. 56] | 7.83 | 124.5 to 125.5 | 102.1 |
| COc1cccc(COc2ccc(N/C=N/O)cn2)c1 [Comp. 78] | 8.38 | 126 to 127 | 100.2 |
| COc1cccc(COc2ccc(N/C=N/O)cn2)c1OC [Comp. 82] | 7.22 | 128.5 to 129 | 104.5 |
| O/N=C/Nc1ccc(OCc2ccccc2)nc1 [Comp. 9] | 8.04 | 163.5 to 164 | 82.9 |
| CC/C=C/COc1ccc(N/C=N/O)cn1 [Comp. 47] | 7.34 | 82 to 84 | 99.2 |
| O/N=C/Nc1ccc(OCC2COCO2)nc1 (stereo not drawn) [Comp. 87] | 6.58 | 186.5 to 187 | 87.0 |
| O/N=C/Nc1ccc(SCc2ccco2)nc1 [Comp. 110] | 7.92 | 140.5 to 141.5 | 85.7 |
| CN1CCCC(COc2ccc(N/C=N/O)cn2)C1 (stereo not drawn) [Comp. 124] | 6.85 | 122 to 124 | 92.6 |
| COc1ccc(COc2ccc(N/C=N/O)cn2)cc1 [Comp. 77] | 8.48 | 164.5 to 165.5 | 100.3 |
| OCCSc1ccc(N/C=N/O)cn1 [Comp. 107] | 6.53 | 115 to 115.5 | 83.1 |
| O/N=C/Nc1ccc(OCCCn2cccc2)nc1 [Comp. 91] | 8.19 | 140 to 141 | 103.0 |
| O/N=C/Nc1ccc(OCCc2cccs2)nc1 [Comp. 98] | 8.37 | 137.5 to 138.5 | 100.7 |
| COCCOc1ccc(N/C=N/O)cn1 [Comp. 7] | 6.11 | 104.5 to 106 | 41.9 |
| CCC(C)Sc1ccc(N/C=N/O)cn1 (stereo not drawn) [Comp. 111] | 7.47 | 125.5 to 127.5 | 76.8 |

Further lines, with some results ahead:

| pIC50 [1] | melting point [°C] | SMILES | Inhibition (1 µM) [1] [%] |
| --- | --- | --- | --- |
| 6.48 | 124.5 to 125.5 | CCN(CC)CCSc1ccc(N/C=N/O)cn1 [Comp. 127] |  |
| 6.51 | 131 to 133 | CN1CCC(CCOc2ccc(N/C=N/O)cn2)CC1 [Comp. 128] |  |
| 8.41 | 166.5 to 167.5 | O/N=C/Nc1ccc(OCc2ccc(F)cc2)nc1 [Comp. 80] | 102.9 |
| 7.88 | 113 to 114.5 | CCCCOCCOc1ccc(N/C=N/O)cn1 [Comp. 61] | 99.8 |
| 6.25 | 108 to 112 | CN(C)CCCOc1ccc(N/C=N/O)cn1 [Comp. 132] |  |
| 7.97 | 143 to 144.5 | C/C=C/COc1ccc(N/C=N/O)cn1 [Comp. 45] | 80.3 |
| 8.77 | 166.5 to 167 | N#Cc1cccc(COc2ccc(N/C=N/O)cn2)c1 [Comp. 81] | 104.4 |
| 8.36 | 99 to 100 | CCOCCCOc1ccc(N/C=N/O)cn1 [Comp. 59] | 109.6 |
| 8.72 | 138 to 140 | O/N=C/Nc1ccc(OCCc2ccsc2)nc1 [Comp. 99] | 95.4 |
| 7.94 | 153.5 to 154.5 | O/N=C/Nc1ccc(SC2CCCC2)nc1 [Comp. 109] | 82.1 |
| 7.14 | 111.5 to 112 | CSCCOc1ccc(N/C=N/O)cn1 [Comp. 92] | 87.6 |
| 6.93 | 105 to 105.5 | OCCCSc1ccc(N/C=N/O)cn1 [Comp. 120] | 102.0 |
| 6.78 | 127 to 128 | CCCCOc1ccc(N/C=N/O)cn1 [Comp. 10] | 106.3 |
| 8.49 | 153 to 154 | O/N=C/Nc1ccc(OCCOc2ccccc2)nc1 [Comp. 94] | 100.3 |
| 7.74 | 141 to 142 | CC(C)Sc1ccc(N/C=N/O)cn1 [Comp. 102] | 74.5 |
| 7.23 | 146.5 to 147.5 | COc1ccccc1COc1ccc(N/C=N/O)cn1 [Comp. 72] | 92.9 |
| 6.40 | 143.5 to 144.5 | C#CCOc1ccc(N/C=N/O)cn1 [Comp. 121] | 99.8 |
| 7.27 | 110 to 111.5 | CN(C)CCCCCCOc1ccc(N/C=N/O)cn1 [Comp. 133] |  |
| 7.17 | 155.5 to 157 | CC#CCOc1ccc(N/C=N/O)cn1 [Comp. 65, N-[2-(2-butyn-1-oxy)pyridin-5-yl]-N′-hydroxyformamidine] | 86.9 |
|  | 133 to 135 | O/N=C/Nc1ccc(SCc2ccccc2)nc1 [Comp. 104, N-[2-(benzylthio)pyridin-5-yl]-N′-hydroxyformamidine] | 103.6 |
| 8.17 | 123 to 125 | CC(C)CCOc1ccc(N/C=N/O)cn1 [Comp. 53] | 108.5 |
| 6.36 | 174.5 to 175 | CC(C)(C)Sc1ccc(N/C=N/O)cn1 [Comp. 117] | 69.3 |
|  | 119 to 120 | C=CCCOc1ccc(N/C=N/O)cn1 [Comp. 55] | 87.3 |
| 8.19 | 158.5 to 159.5 | O/N=C/Nc1ccc(OCc2cc(F)ccc2F)nc1 [Comp. 73] | 105.0 |
| 8.01 | 151 to 152 | CC#CCCOc1ccc(N/C=N/O)cn1 [Comp. 46] | 89.9 |
